# How the values were obtained:
# mouse epo mRNA = test: In vivo EPO mRNA stability after injection of lipid encapsulated mouse epo mRNA; set-up: species or system Balb/c mice; settings: 0.03 and 0.1 mg/kg intravenous, 6 hours after injection, mice
# Procedure: Levels of mRNA in plasma were measured and compared following injection of nanoparticles comprising different cationic lipids. Female Balb/c mice (6-8 week old) were used for evaluation of plasma erythropoietin (epo) levels in vivo following injection of lipid encapsulated mouse epo mRNA. All Formulations were administered intravenously via tail vein injection at a dose of 0.03 and 0.1 mg/kg at a dosing volume of 5 ml/kg. Terminal blood collection was performed via cardiac puncture under 2% isoflurane at 6 hours after Formulation injections. Blood was collected into 0.109 M citrate buffer tube and processed by centrifugation at 5000 rpm for 10 minutes. Serum was collected and epo mRNA levels were analyzed. Results are shown at FIG. 17.
# epo protein = test: In vivo epo protein expression after delivery of lipid encapsulated mouse epo mRNA (epo ELISA); set-up: species or system Balb/c mice; settings: at 0.1 mg/kg, intravenous, 6 hours, mice
# Procedure: Epo expression following delivery of mRNA using lipid nanoparticles comprising the lipids described herein was measured.
# Female Balb/c mice (6-8 weeks old) were used for evaluation of epo protein expression in vivo following delivery of lipid encapsulated mouse epo mRNA. All formulations were administered intravenously via tail vein injection at a dose of 0.03 and 0.1 mg/kg at a dosing volume of 5 mL/kg. Terminal blood collection was performed via cardiac puncture under 2% isoflurane at 6 hours after Formulation injections. Blood was collected into 0.109 M citrate buffer tube and processed by centrifugation at 5000 rpm for 10 minutes. Serum was collected and epo protein levels were analyzed by epo ELISA assay (R&D systems). A standard curve was constructed using samples from PBS-injected mice and relative […] expression was determined by comparing treated groups to untreated PBS control.
# Factor VII = test: In vivo mouse Factor VII siRNA knockdown with lipid nanoparticles; set-up: species or system C57BL/6 mice; settings: intravenous, 48 hours, mice
# Excerpt: The first pair of numbers denotes the number of carbons in the ester, including the carbonyl, for L1 and L2; the pair of numbers in the parenthesis denotes the number of carbons in each branch of the branched alkyl, R1 or if R2 is also branched, R1/R2 (an asterisk denotes a double bond); the number of carbons in R3 is given; and the last line denotes the substitution for R4 and R5. The ATX number is given for reference herein. Calculated Log D values (c-Log D) and calculated pKa (c-pKa) values are given, as well as measured pKa in parenthesis (measured in the Formulation milieu). The c-Log D and c-pKa values are generated by ACD Labs Structure Designer v12.0. Bioactivity is percentage in vivo Factor VII knockdown at a dose of 0.03 mg/kg, unless otherwise designated.
# Using a liver-directed in vivo screen of the liposome libraries, a series of compounds were tested that facilitate high levels of siRNA mediated gene silencing in hepatocytes, the cells comprising the liver parenchyma. Factor VII, a blood-clotting factor, is a suitable target gene for assaying functional siRNA delivery to liver. Because this factor is produced specifically in hepatocytes, gene silencing indicates successful delivery to parenchyma, as opposed to delivery to the cells of the reticulo-endothelial system (e.g., Kupffer cells). Furthermore, Factor VII is a secreted protein that can be readily measured in serum, obviating the need to euthanize animals. Silencing at the mRNA level can be readily determined by measuring levels of protein. This is because the protein's short half-life (2-5 hour). Compositions with siRNA directed to […] were Formulated with the lipid, and comparator sample phosphate-buffered saline (PBS). Female C57BL/6 mice (6-8 week old) were used for FVII siRNA knockdown (KD) experiments.
# All Formulations were administered intravenously via tail vein injection at a dose of 0.03 and 0.1 mg/kg at a dosing volume of […]. Terminal blood collection was performed via cardiac puncture under 2% isoflurane at 48 hours after Formulation injections. Blood was collected into 0.109 M citrate buffer tube and processed by centrifugation at 1200 G for 10 min. Plasma was collected and Factor VII protein levels were analyzed by chromogenic assay (Biophen FVII, Aniara Corporation). A standard curve was constructed using samples from PBS-injected mice and relative Factor VII expression was determined by comparing treated groups to untreated PBS control.
# [1] = Measured pKa of cationic lipids in LNP or micellar formulations by TNS fluorescence; type: physicochemical
# Procedure: pKa of cationic lipids in LNP or micellar Formulations were measured by the procedure of Jayaraman, 2012, Angew. Chem. Int. Ed., 51:8529-33, hereby incorporated by reference. Lipid micelles or LNPs are diluted to 1 mM total lipids in universal buffer with a pH range between 3 and 12 in presence of 0.06 mg/mL 6-(p-toluidino)-2-naphthalenesulfonic acid sodium salt (TNS) reagent (Sigma Aldrich), a pH sensitive fluorescence probe. The anionic TNS molecule fluoresces when associated with the surface of positively charged membranes but is not fluorescent when free in solution, allowing measurement of pKa. The TNS signal is measured on a spectral plate reader. The TNS signal is plotted as function of the pH and analyzed using a non-linear (Boltzman) to determine the pKa.
# Reagents used in the assay include • Hepes free acid, CAS: 7365-45-9 (VWR, 0511-1KG or equivalent) • MES, HPLC grade: (Sigma 105228-100G or equivalent) • Ammonium acetate, HPLC grade: (Sigma 90335-100 mL or equivalent) • Sodium chloride, HPLC grade (VWR EM-MX0475-1 or equivalent) • TNS (Sigma-Aldrich T9792-250 mg or equivalent) • Hydrochloric acid • DMSO • DPBS without calcium and magnesium (GE, SH30028.02 or equivalent) • H2O, HPLC grade (OmniSolv, WX0004-1 or equivalent)
# To prepare a stock solution of Universal Buffer (UB) in a polystyrene sterile storage bottle, prepare 1 L using the following table.
# Reagents are sterile filtered through a 0.2 μm filter. Preparation of UB solution includes adding 5 mL of 1 M HCl to a 350 mL stock solution.
# To prepare a pH ladder, centrifuge tubes (50 mL) with 20 mL UB buffer are used. (pH ˜3) and differing amounts of 2 N NaOH. Stock solutions of TNS at 1 mg/mL in DMSO. 60 μL of TNS at 1 mg/mL is added to 940 μL water to reach a working solution concentration of 0.06 mg/mL. Five test samples, 1 mL of LNP sample in PBS at 1 mM total lipid, and 1 reference sample are analyzed per plate. Samples at different pH values are prepared in wells in which 25 μL of 0.06 mg/mL TNS is added. 15 μL of test samples is added per well. The microplate is incubated for 15 minutes at room temperature in the dark. TNS template can be used to format data from the plate reader. Perform non-linear (Boltzman) regression analysis of the samples in Origin Pro 8 or equivalent software.
smiles,measurement,setting,value
CCCCCC/C=C\COC(=O)CCCN(CCCC(=O)OC(CCCCCCC)CCCCCCCC)C(=O)SCCN(C)C (stereo not drawn) [ATX-0057],epo mRNA levels in serum compared with ATX-0002 (FIG. 17),mouse epo mRNA,substantial improvement over ATX-0002
same,epo expression compared with ATX-002 (FIG. 19),epo protein,substantially higher amounts
same,Factor VII knockdown activity compared with ATX-002 (FIG. 18),Factor VII; both at 0.03 and 0.1 mg/kg,substantially more effective than ATX-002
same,Bioactivity: percentage in vivo Factor VII knockdown,Factor VII; dose 0.03 mg/kg,86 percentage
same,Δ measured pKa vs ATX-0002,"[1]; change on shortening the ester, vs ATX-0002",no impact
same,pKa,"[1]; measured in the Formulation milieu, TNS fluorescence, 1 mM total lipids",5.7

# — US20210323914A1, “IONIZABLE CATIONIC LIPID FOR RNA DELIVERY” (Arcturus Therapeutics, Inc., priority 2017, published 2021)
